From US12172965B2, “Drug conjugate comprising quinoline derivatives” (UNIVERSITE PARIS-SACLAY, priority 2018, dated 2024)
Where two headings read alike, the source gives them in different places. Each block holds one compound with its values, some of them ahead of it.

What was measured:
cell line HCT116 = conditions: molecules 4f/4j and 4g/4k of Alami et al. J. Med. Chem. 2019; cited from earlier work
SKOV3 (ovarian tumour) = assay: Antiproliferative activity (IC50), CellTiter Glo, SKOV3; type: cell-based, human; conditions: for IC50: Homo sapiens, SK-OV-3
Source text: (§1) The IC50 (as per accepted terminology) activities of the compounds according to the invention 4-((3-amino-4-methoxyphenyl)(methyl)amino) quinoline-2-carbonitrile (ICQN-1); 5-(5-((2-cyanoquinolin-4-yl)(methyl)amino)-2-methoxyphenyl)-N-hydroxypent-4-ynamide (ICQN-2); and (E)-3-(5-((2-cyanoquinolin-4-yl)(methyl)amino)-2-methoxyphenyl)-N-hydroxyacrylamide (ICQN-3) were compared with compounds of the prior art and with a commercial and clinical reference compound, in particular MMAE (monomethylauristatin E). The IC50 activities were measured on various different cancer cell lines HCT116 (colorectal tumour), A549 (non-small cell lung cancer), NCI-N87 (gastric tumour), Mia-Paca-2 (pancreatic tumour), K562R (chronic myeloid leukemia), SKOV3 (ovarian tumour), SKBr3 (breast tumour, Her2 overexpression), MCF7 (breast tumour) and MDA-MB231 (breast tumour).
(§2) The cancer cell lines were obtained from the American Culture Collection (ATCC, Rockville, MD) or from the German collection of microorganisms and cell cultures of the Leibniz Institute (DSMZ, Braunschweig-Germany) or from the European collection of cell cultures (ECACC, England). The cancer cell lines were cultured according to the supplier's instructions.
(§3) The HCT-116 human colorectal carcinoma, SK-BR3 breast carcinoma, and SK-OV-3 ovarian carcinoma cells were cultured in Gibco McCoy's 5A medium supplemented with 10% foetal calf serum (FCS) and 1% glutamine.
(§4) The cells were counted using a Vi-cell XR (Beckman Coulter) and the cell viability was assessed by using 0.25% trypan blue dye exclusion assay. The cells were tested for the presence of mycoplasmas prior to the experiments with the Mycoplasma PCR detection kit (Applied Biological Materials Inc., Canada) according to the manufacturer's instructions, and only mycoplasma-free cells were used for the study. The cell lines were maintained at 37° C. in a humidified atmosphere containing 5% CO2.
(§5) After 24 hours of culturing, the cells were treated with the tested compounds at 10 different final concentrations. Each concentration was obtained from serial dilutions in culture medium starting from the stock solution. The control cells were treated with the carrier. The experiments were carried out in triplicate.
(§6) The measurements were performed after 72 hours of treatment using the CellTiter Glo assay (Promega) which makes it possible to measure through bioluminescence (quantification of adenosine triphosphate—ATP) the number of living cells, by using a PolarStar Omega microplate reader (BMG-Labtech).
(§7) The dose-response curves were plotted with the Graph Prism software application and the IC50 values were calculated using the Graph Prism software based on polynomial curves (four or five parameter logistic equations).

NCI-N87 (gastric tumour) = assay: Antiproliferative activity (IC50), CellTiter Glo, NCI-N87; type: cell-based; conditions: for IC50: Homo sapiens, NCI-N87
Source text: as §1, §2
(§8) The A549 lung carcinoma cells, K562R myeloid leukemia cells, and the NCI-N87 gastric carcinoma cells were cultured in Gibco Roswell Park Memorial Institute (RPMI) 1640 medium supplemented with 10% foetal calf serum (FCS) and 1% glutamine. The Mia-Paca2 carcinoma cells were cultured in Gibco Dulbecco's Modified Eagle Medium (DMEM) supplemented with 10% foetal calf serum (FCS) and 1% glutamine.
as §4, §5, §6, §7

[1] = tested on: HCT116 (colorectal tumour); assay: Antiproliferative activity (IC50), CellTiter Glo, HCT116; type: cell-based, human; conditions: for IC50: Homo sapiens, HCT-116
Source text: as §1, §2, §3, §4, §5, §6, §7

[2] = tested on: K562R (chronic myeloid leukemia); assay: Antiproliferative activity (IC50), CellTiter Glo, K562R; type: cell-based; conditions: for IC50: Homo sapiens, K-562R
Source text: as §1, §2, §8, §4, §5, §6, §7
The K562R (chronic myeloid leukemia) cells have an MDR profile that allows them to be resistant to several chemotherapeutic compounds including the reference compound MMAE.

[3] = tested on: Mia-Paca-2 (pancreatic tumour); assay: Antiproliferative activity (IC50), CellTiter Glo, Mia-Paca-2; type: cell-based; conditions: for IC50: Homo sapiens, MIA PaCa-2
Source text: as §1, §2, §8, §4, §5, §6, §7

[4] = tested on: SKBr3 (breast tumour, Her2 overexpression); assay: Antiproliferative activity (IC50), CellTiter Glo, SKBr3; type: cell-based, human; conditions: for IC50: Homo sapiens, SK-BR-3
Source text: as §1, §2, §3, §4, §5, §6, §7

MDA-MB-231 cell line = conditions: published by Chen et al.; read-out: IC50 over the MDA-MB-231 cell line; cited from earlier work
[5] = tested on: A549 (non-small cell lung cancer); assay: Antiproliferative activity (IC50), CellTiter Glo, A549; type: cell-based; conditions: for IC50: Homo sapiens, A549
Source text: as §1, §2, §8, §4, §5, §6, §7

[6] = tested on: MDA-MB231 (breast tumour); assay: Antiproliferative activity (IC50), CellTiter Glo, MDA-MB231; type: cell-based; conditions: unconjugated
Source text: as §1, §2
(§9) The breast adenocarcinoma cells MDA-MB231 and MCF7 were cultured in Gibco RPMI 1640 culture medium supplemented with 10% foetal calf serum (FCS) and 1% glutamine.
as §4, §5, §6, §7

MCF7 (breast tumour) = assay: Antiproliferative activity (IC50), CellTiter Glo, MCF7; type: cell-based; conditions: unconjugated
Source text: as §1, §2, §9, §4, §5, §6, §7

[7] = comparative data 13b / ICQN-1, unit inferred, read-out: SKOV3 (antiproliferative activity, Table 3)
[8] = comparative data 13b / ICQN-1, unit inferred, read-out: NCI-N87 (antiproliferative activity, Table 3)
[9] = comparative data 13b / ICQN-1, unit inferred, read-out: HCT116 (antiproliferative activity, Table 3)
[10] = comparative data 13b / ICQN-1, unit inferred, read-out: K562R (antiproliferative activity, Table 3)
[11] = comparative data 13b / ICQN-1, unit inferred, read-out: Mia-Paca2 (antiproliferative activity, Table 3)
[12] = comparative data 13b / ICQN-1, unit inferred, read-out: SKBr3 (antiproliferative activity, Table 3)
[13] = comparative data 13b / ICQN-1, unit inferred, read-out: A549 (antiproliferative activity, Table 3)
[14] = ratio versus prior-art payload ICQO-1
[15] = ratio versus MMAE, unconjugated
[16] = resistant cancer cells, MDR profile

SMILES: C=C(c1ccc2c(c1)c1ccccc1n2C)c1cc(C)nc2ccccc12
IC50 (cell line HCT116): 2 nM

SMILES: C=C(c1ccc2c(c1)c1ccccc1n2C)c1cc(C#N)nc2ccccc12
IC50 (cell line HCT116): 12 nM

IC50 (SKOV3 (ovarian tumour); [7]): 1.28 nM | IC50 (NCI-N87 (gastric tumour); [8]): 4.36 nM | IC50 [1, 9]: 2.15 nM | IC50 [2, 10]: 3.59 nM | IC50 [3, 11]: 0.92 nM | IC50 [4, 12]: 2.17 nM | IC50 [5, 13]: 0.68 nM
SMILES: COc1ccc(N(C)c2cc(C)nc3ccccc23)cc1N [Compound 13b, reference compound]
IC50 (MDA-MB-231 cell line): 3.2 nM

IC50 (SKOV3 (ovarian tumour); [7]): 0.44 nM | IC50 (SKOV3 (ovarian tumour); free, unconjugated, 72 hours of treatment, read-out: SKOV3 IC50): 0.44 nM | IC50 (SKOV3 (ovarian tumour); nM given only in VB118 cells, read-out: SKOV-3 (antiproliferative activity, Table 6)): 0.44 nM | IC50 (NCI-N87 (gastric tumour); [8]): 0.3 nM | IC50 (NCI-N87 (gastric tumour); free, unconjugated, 72 hours of treatment, read-out: NIC-N87 IC50): 0.3 nM | IC50 (NCI-N87 (gastric tumour); nM given only in VB118 cells, read-out: NCI-N87 (antiproliferative activity, Table 6)): 0.3 nM | IC50 [1, 9]: 0.23 nM | IC50 ([1]; free, unconjugated, 72 hours of treatment, read-out: HCT116 IC50): 0.23 nM | IC50 [2, 10]: 0.47 nM | IC50 ([2]; free, unconjugated, 72 hours of treatment, read-out: K562R IC50): 0.47 nM | IC50 ([2]; nM given only in VB118 cells, read-out: K562R (antiproliferative activity, Table 6)): 0.47 nM | IC50 ([2]; resistant cancer cells, MDR profile, read-out: K562R (PgP+) IC50): 0.47 nM | IC50 [3, 11]: 0.49 nM | IC50 ([3]; free, unconjugated, 72 hours of treatment, read-out: Mia-Paca-2 IC50): 0.49 nM | IC50 ([3]; nM given only in VB118 cells, read-out: Mia-Paca-2 (antiproliferative activity, Table 6)): 0.49 nM | IC50 [4, 12]: 0.36 nM | IC50 ([4]; free, unconjugated, 72 hours of treatment, read-out: SKBr3 IC50): 0.36 nM | IC50 ([4]; nM given only in VB118 cells, read-out: SKBR3 (antiproliferative activity, Table 6)): 0.36 nM | IC50 ([6]; Homo sapiens, MDA-MB-231, free, 72 hours of treatment, read-out: MDA-MB231 CI50): 0.34 nM | IC50 (MCF7 (breast tumour); Homo sapiens, MCF7, free, 72 hours of treatment, read-out: MCF7 CI50): 0.17 nM | IC50 [5, 13]: 0.72 nM | IC50 ([5]; free, unconjugated, 72 hours of treatment, read-out: A549 IC50): 0.72 nM
SMILES: COc1ccc(N(C)c2cc(C#N)nc3ccccc23)cc1N [ICQN-1, 4-((3-amino-4-methoxyphenyl)(methyl)amino) quinoline-2-carbonitrile]
Ratio of activity 13b vs ICQN-1, SKOV3 (SKOV3 (ovarian tumour); ratio versus compound 13b): 3 | IC50 ratio ICQN-1 vs ICQO-1, SKOV-3 (SKOV3 (ovarian tumour); [14]): 3 | IC50 Ratio ICQN1/MMAE, NCI-N87 (NCI-N87 (gastric tumour); [15]): 22 | Ratio of activity 13b vs ICQN-1, NCI-N87 (NCI-N87 (gastric tumour); ratio versus compound 13b): 15 | IC50 ratio MMAE/ICQN-1 (fold potency of ICQN-1 over MMAE), HCT116 [1, 15]: 7 | Ratio of activity 13b vs ICQN-1, HCT116 ([1]; ratio versus compound 13b): ~10 | IC50 ratio ICQN-1 vs ICQO-1, HCT-116 [1, 14]: 44 | Ratio of activity 13b vs ICQN-1, K562R ([2]; ratio versus compound 13b): 8 | Ratio vs ICQO-1, K562R (PgP+) [2, 16]: 4.2 | Ratio vs MMAE, K562R (PgP+) [2, 16]: 74 | IC50 Ratio ICQN1/MMAE, Mia-Paca-2 [3, 15]: 6 | Ratio of activity 13b vs ICQN-1, Mia-Paca2 ([3]; ratio versus compound 13b): 2 | Ratio of activity 13b vs ICQN-1, SKBr3 ([4]; ratio versus compound 13b): 6 | IC50 Ratio ICQN1/MMAE, MDA-MB231 ([6]; ratio versus MMAE): 4 | IC50 Ratio ICQN1/MMAE, MCF7 (MCF7 (breast tumour); ratio versus MMAE): 3 | Potency ratio of ICQN-1 vs MMAE (MMAE IC50 / ICQN-1 IC50), A549 [5, 15]: 6 | Ratio of activity 13b vs ICQN-1, A549 ([5]; ratio versus compound 13b): 1
